Data on 13 compounds can be found in patent US10239856B2, “Synthesis of resorcylic acid lactones useful as therapeutic agents” (UNIVERSITY DE STRASBOURG, priority 2008, dated 2019).

The test system of one series is HSP90. The settings on record: cited from earlier work.
The next series deals with Her-2 (HSP90 client). The series is described as follows: Her-2 (HSP90 client) degradation (client depletion). The series is classed as cell-based. The protocol:
A number of the compounds of the invention were tested for affinity to HSP90α (see Kim et al., J. Biomol. Screen., 2004, 9, 375), Her-2 (HSP90 client) degradation (see Xu et al., J. Biol. Chem., 2001, 276, 3702), and cytotoxicity against SKBr3 and HCC1954, two breast cancer cell lines which over express Her-2.

In a further series the target is HSP90α (Homo sapiens, UniProt P07900). In words: Affinity to HSP90α. Format: binding.
Another series has as its system SKBr3. The series is described as follows: Cytotoxicity against SKBr3 breast cancer cells. Format: cell-based. The settings on record: Homo sapiens, SK-BR-3, first value of cell. The protocol:
(§1) Compounds of the invention were assayed for cytotoxicity in HCC1954 and SK-BR-3 tumor cells.

Another series deals with ErbB2 in SK-BR3. The series is described as follows: Degradation of HSP90 client ErbB2 in SK-BR3, Western blotting after 18 hrs treatment. Format: cell-based. The settings on record: SK-BR3, 18 hrs treatment, E-oxime isomer. (In western blotting, separated proteins are transferred to a membrane and probed.)
The next series relates to HCC1954. In words: Cytotoxicity against HCC1954 breast cancer cells. The series is classed as cell-based. The settings on record: Homo sapiens, second value of cell. The method, then: as §1
Series [1] has as its system BT-474 (breast tumor cell line) xenograft. The series is described as follows: BT-474 breast tumor xenograft in CB17/SCID mice. Format: in vivo. Also on record: Regression in tumor volume / Inhibition of tumor growth: dose or concentration left out as unconfirmed. The protocol: FIG. 1 depicts the tumor volume and animal weight change following treatment with compound 13a or control vehicle. Each point represents the mean of measurements from 5 (for vehicle) or 6 (for 13a) animals. The experiment was carried out for 28 days and tumor volumes were determined weekly by caliper measurement. Student's t-test was used to determine the statistical analysis of the difference between tumor volumes of vehicle-treated and drug-treated animals. Individual body weights were also determined weekly. Statistical significance was achieved (comparing tumor volumes in vehicle-treated and drug-treated animals) at day 21 for the q4d schedule (p=0.0497). In comparison, on the q2d schedule increasing statistical significance was achieved on days 14, 21, and 28, when comparing tumor volume of vehicle-treated and drug-treated animals (p=0.012, p=0.007, and p=0.0002, respectively).
Top panels represent hematoxylin & eosin (H & E) stained paraffin sections. Nuclei appear blue in color. The dark blue condensed nuclei in drug-treated tumors (right) are consistent with apoptotic cells. […] Bottom panels represent TUNEL (terminal deoxynucleotidyl transferase-mediated dUTP-biotin nick end labeling)-stained paraffin sections. The high preponderance of reddish-pink nuclei (positive for TUNEL staining) in the drug-treated tumors reflects DNA fragmentation which is characteristic of apoptosis. Blue arrowheads point to characteristic TUNEL positive nuclei.
Two schedules of 100 mg every other day (q2d) or every four days (q4d) during 28 days were investigated.
Based on the in vitro data shown in Table 3, compound 13a was further evaluated in vivo.

[2] abbreviates: Her-2 degradation; read-out: Client Depletion.
Setting [3] is: read-out: Client Depletion; Her-2 degradation.

SMILES strings stand for the structures. Like-named read-outs stand apart in the source and are kept apart here. A value given as a limit tells only on which side of the number the result lay.

As to `C[C@@H]1CC2O[C@@H]2CC/C=C/C(=O)Cc2c(Cl)c(O)cc(O)c2C(=O)O1` (stereo partly drawn) [pochonin A], the “Inhibitor of HSP90” value with HSP90 was 90 nM.
Consider `O=C1OCC/C=C/CC/C=C/C(=N/OCC(=O)N2CCCCC2)Cc2c(Cl)c(O)cc(O)c21` [13a], for which the IC50 amounted to 35 nM in the series on Her-2 (HSP90 client) (setting [2]), 21 nM on HSP90α (read-out: HSP90 affinity), 125 nM in the series with SKBr3 and 320 nM in the series with HCC1954. The “Reduction of ErbB2 concentration compared with radicicol and 17-AAG” value (from here on “Reduction of ErbB2 concentration”) in the series with ErbB2 in SK-BR3 was “significantly more effective than both radicicol and 17-AAG”. Besides, the Weight loss entry in series [1] (q2d and q4d schedules, 28 days) is given as “Neither the q2d nor the q4d schedules resulted in significant weight loss”. For the same compound, the “Inhibition of tumor growth” value in series [1] (q2d or q4d during 28 days) was “dose-dependent inhibition of the tumor growth”. Besides, in series [1] (q2d schedule, 28 days), the “Regression in tumor volume” value is on record as 18%. In addition, the “Tumor histology: cellularity” value in series [1] (q2d schedule, 28 days) is “dramatic loss of cellularity”. In series [1] (q2d schedule, 28 days), the “Tumor nuclear TUNEL staining (apoptosis)” value is listed as “high degree of nuclear TUNEL staining”.
Turning to `O=C1OCC/C=C/CC/C=C/C(=NOCC(=O)N2CCNCC2)Cc2c(Cl)c(O)cc(O)c21` [13e], the IC50 with Her-2 (HSP90 client) (setting [2]), at HSP90α (read-out: HSP90 affinity), in the series with SKBr3 and with HCC1954 was greater than 10000 nM throughout.
Consider `COC(=O)CON=C1/C=C/CC/C=C/CCOC(=O)c2c(O)cc(O)c(Cl)c2C1` [13l], for which the IC50 is 6500 nM in the series on Her-2 (HSP90 client) (setting [2]), 190 nM on HSP90α (read-out: HSP90 affinity), greater than 10000 nM with SKBr3 and greater than 10000 nM with HCC1954.
`O=C(CON=C1/C=C/CC/C=C/CCOC(=O)c2c(O)cc(O)c(Cl)c2C1)NCc1ccccc1` [13j]: the IC50 was determined as 5500 nM in the series with Her-2 (HSP90 client) (setting [2]), 110 nM on HSP90α (read-out: HSP90 affinity), 3500 nM with SKBr3 and 8500 nM with HCC1954.
`O=C(CON=C1/C=C/CC/C=C/CCOC(=O)c2c(O)cc(O)c(Cl)c2C1)NC1CCCCC1` [13k]: the IC50 was 250 nM with Her-2 (HSP90 client) (setting [2]), 90 nM at HSP90α (read-out: HSP90 affinity), 550 nM in the series with SKBr3 and 450 nM in the series on HCC1954.
Turning to `C[C@@H]1C/C=C/CC/C=C/C(=N/OCC(=O)N2CCCCC2)Cc2cc(O)cc(O)c2C(=O)O1` [13c], the IC50 in the series on Her-2 (HSP90 client) (setting [3]) was found to be 26 nM; against HSP90α (HSP90 affinity), 18 nM; with SKBr3, 450 nM; with HCC1954, 630 nM. The “Reduction of ErbB2 concentration” value in the series on ErbB2 in SK-BR3 was “significantly more effective than both radicicol and 17-AAG”.
In the case of `C=CCC/C=C/C(Cc1c(Cl)c(O)cc(O)c1C(=O)OCCC=C)=NOCC(=O)N1CCCCC1` [13m], the IC50 with Her-2 (HSP90 client) (setting [2]), at HSP90α (read-out: HSP90 affinity), with SKBr3 and in the series with HCC1954 was greater than 10000 nM each time.
In the case of `COC1CC/C=C/CCOC(=O)c2c(O)cc(O)c(Cl)c2C/C(=N\OCC(=O)N2CCCCC2)C1` (stereo not drawn) [13f], the IC50 with Her-2 (HSP90 client) (setting [2]) came out at 2400 nM; on HSP90α (read-out: HSP90 affinity), 68 nM; in the series on SKBr3, 1300 nM; in the series on HCC1954, 2800 nM.
As for `O=C1OCC/C=C/CC/C=C/C(=N/OCC(=O)N2CCCCC2)Cc2cc(O)cc(O)c21` [13b], the IC50 in the series on Her-2 (HSP90 client) (setting [3]) is 50 nM; against HSP90α (HSP90 affinity), 15 nM; in the series with SKBr3 it was 120 nM; with HCC1954, 220 nM. For the same compound, the “Reduction of ErbB2 concentration” value with ErbB2 in SK-BR3 was “significantly more effective than both radicicol and 17-AAG”.
On to `O=C1OCC/C=C/CC/C=C/C(=N\OCC(=O)N2CCCCC2)Cc2c(Cl)c(O)cc(O)c21` [14a], for which the IC50 was greater than 10000 nM with Her-2 (HSP90 client) (setting [2]), 1800 nM at HSP90α (read-out: HSP90 affinity), greater than 10000 nM in the series with SKBr3 and 5200 nM with HCC1954.
For the compound `O=C1OCC/C=C/CC/C=C/C(=N\OCC(=O)N2CCCCC2)Cc2cc(O)cc(O)c21` [14b], the IC50 with Her-2 (HSP90 client) (setting [3]) is 5000 nM; at HSP90α (HSP90 affinity), 110 nM; with SKBr3, greater than 10000 nM; with HCC1954, greater than 10000 nM.
Take `O=C(CON=C1/C=C/CC/C=C/CCOC(=O)c2c(O)cc(O)c(Cl)c2C1)NCCO` [13h]: the IC50 was 7700 nM in the series on Her-2 (HSP90 client) (setting [2]), 390 nM on HSP90α (read-out: HSP90 affinity), 7500 nM in the series on SKBr3 and greater than 10000 nM with HCC1954.
